target: T1, DNA topoisomerase 1 (Homo sapiens, UniProt P11387); assay: Inhibitory activity against DNA topoisomerase-1 obtained from Hela cells
T1 sequence (P11387 whole entry): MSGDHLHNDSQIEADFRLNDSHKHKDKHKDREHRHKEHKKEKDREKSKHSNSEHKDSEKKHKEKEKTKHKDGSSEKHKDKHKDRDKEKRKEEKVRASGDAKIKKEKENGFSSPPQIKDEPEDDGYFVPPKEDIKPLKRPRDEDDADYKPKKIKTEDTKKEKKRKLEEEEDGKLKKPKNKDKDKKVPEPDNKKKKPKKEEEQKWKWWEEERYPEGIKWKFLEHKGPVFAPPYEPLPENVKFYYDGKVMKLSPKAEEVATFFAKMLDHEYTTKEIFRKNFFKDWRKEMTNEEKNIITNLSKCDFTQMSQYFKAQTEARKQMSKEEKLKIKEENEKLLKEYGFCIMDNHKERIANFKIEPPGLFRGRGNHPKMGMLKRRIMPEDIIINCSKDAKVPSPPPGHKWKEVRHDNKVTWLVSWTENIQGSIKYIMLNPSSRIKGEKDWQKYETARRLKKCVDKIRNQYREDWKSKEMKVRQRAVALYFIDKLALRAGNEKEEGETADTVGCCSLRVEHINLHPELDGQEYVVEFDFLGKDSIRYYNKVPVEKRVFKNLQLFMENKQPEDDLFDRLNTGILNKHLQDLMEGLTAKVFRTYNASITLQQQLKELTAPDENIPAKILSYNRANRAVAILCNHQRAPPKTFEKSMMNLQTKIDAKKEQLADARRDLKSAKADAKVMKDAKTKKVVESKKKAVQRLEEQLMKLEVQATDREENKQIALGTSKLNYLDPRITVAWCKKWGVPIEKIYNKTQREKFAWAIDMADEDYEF

IC50	SMILES
> 625 µM	CC(C)=CC=C(OC(=O)C(c1ccccc1)c1ccccc1)c1cc(O)c2c(O)ccc(O)c2c1O
> 625 µM	CC(C)=CC=C(OC(=O)C=C(C)C=CC=C(C)/C=C/C1=C(C)CCCC1(C)C)c1cc(O)c2c(O)ccc(O)c2c1O [(2Z,4E,6E,8E)-3,7-Dimethyl-9-(2,6,6-trimethyl-cyclohex-1-enyl)-nona-2,4,6,8-tetraenoic acid (R)-1-(5,8-dihydroxy-1,4-dioxo-1,4-dihydro-naphthalen-2-yl)-4-methyl-pent-3-enyl ester]
> 625 µM	CCCCC/C=C/C/C=C/C/C=C/CCCCC(=O)OC(=CC=C(C)C)c1cc(O)c2c(O)ccc(O)c2c1O [(6E,9E,12E)-Octadeca-6,9,12-trienoic acid (R)-1-(5,8-dihydroxy-1,4-dioxo-1,4-dihydro-naphthalen-2-yl)-4-methyl-pent-3-enyl ester]
> 625 µM	CCCCC/C=C/C/C=C/CCCCCCCC(=O)OC(=CC=C(C)C)c1cc(O)c2c(O)ccc(O)c2c1O [(9E,12E)-Octadeca-9,12-dienoic acid (R)-1-(5,8-dihydroxy-1,4-dioxo-1,4-dihydro-naphthalen-2-yl)-4-methyl-pent-3-enyl ester]
153 µM	CCC/C=C/C(=O)OC(=CC=C(C)C)c1cc(O)c2c(O)ccc(O)c2c1O [(E)-Hex-2-enoic acid (R)-1-(5,8-dihydroxy-1,4-dioxo-1,4-dihydro-naphthalen-2-yl)-4-methyl-pent-3-enyl ester]
153 µM	CC/C=C/CC(=O)OC(=CC=C(C)C)c1cc(O)c2c(O)ccc(O)c2c1O [(E)-Hex-3-enoic acid (R)-1-(5,8-dihydroxy-1,4-dioxo-1,4-dihydro-naphthalen-2-yl)-4-methyl-pent-3-enyl ester]
> 625 µM	CCCCCCCC/C=C/CCCCCCCC(=O)OC(=CC=C(C)C)c1cc(O)c2c(O)ccc(O)c2c1O [(E)-Octadec-9-enoic acid (R)-1-(5,8-dihydroxy-1,4-dioxo-1,4-dihydro-naphthalen-2-yl)-4-methyl-pent-3-enyl ester]
153 µM	CC(C)=CC=C(OC(=O)c1ccccc1)c1cc(O)c2c(O)ccc(O)c2c1O [(R)-1-(5,8-dihydroxy-1,4-dioxo-1,4-dihydronaphthalen-2-yl)-4-methylpent-3-enyl benzoate]
> 625 µM	CCCCCCCCCC(=O)OC(=CC=C(C)C)c1cc(O)c2c(O)ccc(O)c2c1O [Decanoic acid (R)-1-(5,8-dihydroxy-1,4-dioxo-1,4-dihydro-naphthalen-2-yl)-4-methyl-pent-3-enyl ester]
> 625 µM	CCCCCCCCCCCC(=O)OC(=CC=C(C)C)c1cc(O)c2c(O)ccc(O)c2c1O [Dodecanoic acid (R)-1-(5,8-dihydroxy-1,4-dioxo-1,4-dihydro-naphthalen-2-yl)-4-methyl-pent-3-enyl ester]
> 625 µM	CCCCCCCCCCCCCCCC(=O)OC(=CC=C(C)C)c1cc(O)c2c(O)ccc(O)c2c1O [Hexadecanoic acid (R)-1-(5,8-dihydroxy-1,4-dioxo-1,4-dihydro-naphthalen-2-yl)-4-methyl-pent-3-enyl ester]
> 625 µM	CCCCCCCCC(=O)OC(=CC=C(C)C)c1cc(O)c2c(O)ccc(O)c2c1O [Nonanoic acid (R)-1-(5,8-dihydroxy-1,4-dioxo-1,4-dihydro-naphthalen-2-yl)-4-methyl-pent-3-enyl ester]
> 625 µM	CCCCCCCCCCCCCCCCCC(=O)OC(=CC=C(C)C)c1cc(O)c2c(O)ccc(O)c2c1O [Octadecanoic acid (R)-1-(5,8-dihydroxy-1,4-dioxo-1,4-dihydro-naphthalen-2-yl)-4-methyl-pent-3-enyl ester]
> 625 µM	CCCCCCCC(=O)OC(=CC=C(C)C)c1cc(O)c2c(O)ccc(O)c2c1O [Octanoic acid (R)-1-(5,8-dihydroxy-1,4-dioxo-1,4-dihydro-naphthalen-2-yl)-4-methyl-pent-3-enyl ester]
